US5281583A, “LPS-containing analgesics and veterinary analgesics” (priority 1990, dated 1994)

Tests used:
[1] = test system: macrophage peritoneal cells of mice; assay: ability of LPS to activate in vitro TNF productivity of macrophage (TNF activity by cytotoxicity to L929 cells); format: cell-based, mouse
Method: In order to determine the ability of LPS to activate the in vitro TNF productivity of macrophage, a recombinant mouse IFN-γ is added to peritoneal macrophage cells of mouse as the primer followed by addition of the LPS as the trigger thereto, and then the TNF activity is determined.
The TNF activity is determined, as follows, on the basis of the cytotoxicity to L929 cells (Proci. Natl. Acad. Sci. U.S.A., 72, pp. 3666-3670, […]). L-929 cells are cultured in Eagles' Minimum Essential Medium (hereunder referred to only as MEM) with 5% fetal calf serum (hereunder referred to only as FCS) added thereto until 100 μl of the medium contains 8×10^4 cells, and then the cells are grown in a flat-bottomed plate having 96 wells.
The growth conditions are 37° C. in the presence of 5% CO2, and under a humidity of 100% for 2 hours, and the procedures may be the same as for the conventional cell culture. Then actinomycin D is added to the medium to a final concentration of 1 μg/ml, and the volume of the culture solution is adjusted to 150 μl. Immediately thereafter 50 μl of the sample diluted appropriately with MEM medium is added to the culture solution. Here, ED50 may be determined by adjusting the dilution appropriately. The L-929 cells having a final volume of 200 μl are cultured for an additional 18 hours under the same conditions as described above.
In order to determine the cell necrosis activity, first the whole medium is removed followed by addition of a 1% methyl alcoholic solution containing 0.1% crystal violet for fixation staining. Crystal violet stains all the eukaryotic cells, but the dead cells are removed off from the bottom of the flask only by washing after the staining; so the cell necrosis activity may be determined directly. The staining degree is measured on the basis of adsorption at OD590 nm, and is compared with that of a control to determine the cell necrosis activity. This activity is defined as follows.
The dilution of the sample which allows 50% of the L-929 cells to survive (N) is determined. Rabbit TNS is used as the control, and its activity n (units/ml) is determined using 2.4×10^6 units/mg/ml of TNF-α. The dilution which provides ED50 of rabbit TNS is determined.
The activity of the sample (units/ml) is calculated by the equation N/C×n.
Two hundred μl (2×10^5 cells)/well of macrophage peritoneal cells of mice (each group comprised three mice of 9 weeks old and having an average weight of 29 g) were placed in a flat-bottomed plate having 96 wells, and 10 μl of recombinant IFN-γ (100 units/ml) as a primer was placed in the respective wells. Separately, extracts prepared by extraction of various LPS sources with hot water at 65° C. for 5 hrs. were diluted to various degrees, and then were administered as triggers to the cells three hours after the administration of the primer in a proportion of 10 μl/well. After two hour culture, the culture solutions were subjected to centrifugation at 3,000 G for 20 min. A pipette was used to collect 130 μl of the supernatant from the respective wells, and the TNF activity was determined on the basis of the toxicity to L929 cells. The limulus test-positive LPS content was determined using Toxicolor System® commercially available from Sei-Kagaku Kogyo Co. in Japan.
The values were plotted to prepare a graph wherein the quantity of the TNF produced (units/ml of culture solution) was plotted along the axis of ordinate, whereas the corresponding limulus test-positive LPS content (ng/ml of culture solution) was plotted along the axis of abscissa (on a logarithmic scale), and a sigmoid curve was prepared on the basis of the plotted points. The macrophage activation ability was estimated to be 0% in the case where it corresponded to the quantity of TNF produced by macrophage with no trigger added thereto, and 100% was assigned to the macrophage activation ability which provided the maximal constant of TNF. […]

C3H/H male mice = assay: acetic acid-writhing method, intravenous, time course in comparison with phenylbutazone; format: in vivo, mouse; conditions: for Writhing frequency / writhing inhibition: Group B, i.v. 1 mg/mouse
From the text: The analgesic effects of the LPSs of the present invention have been confirmed by an experiment using animals according to the acetic acid-writhing method described on page 415 of "Inflammation and anti-inflammatory therapy" issued in 1982 by Ishiyaku Shuppan Co. in Japan, one of the established methods for the determination of the effects of non-narcotic analgesics. The experiment included comparison with the prior art phenylbutazone which is often used to eliminate inflammatory pain.
2) The following preparations were given to six-membered groups of 8 week old C3H/H male mice (body weight: 20-25 g).
Group A: an intravenous solution prepared by dissolving 1 μg by weight/mouse of LPS (wheat LPS prepared in Reference Example 1) in 0.2 ml of physiological saline.
Group B: an intravenous solution prepared by dissolving 1 mg/mouse of the prior art analgesic phenylbutazone in 0.2 ml of 1% aqueous CMC solution.
Group C: 0.2 ml of physiological saline.
0.5 ml of 1% acetic acid was administered intraperitoneally 0.5, 1.5, 3, 8 or 18 hours after the administration of the preparations, and the writhing frequency of the respective mice was counted. The results are shown in Table 9 as an average of six mice in the respective groups. In the table, the writhing inhibition (%) was calculated as follows: [formula]
In the above equation, the writhing frequency in the group C is that obtained in the case where acetic acid was given 30 minutes after the administration of physiological saline, and the counting was made for 30 minutes. The data of the group A was 39, whereas that of the group B was 35.

[2] = LPS 2 ng/ml of culture solution
[3] = LPS 24 ng/ml of culture solution
[4] = LPS 240 ng/ml of culture solution
[5] = LPS 2400 ng/ml of culture solution

Compound | TNF produced [1, 2] | macrophage activation ability [1, 2] | TNF produced [1, 3] | macrophage activation ability [1, 3] | TNF produced [1, 4] | macrophage activation ability [1, 4] | TNF produced [1, 5] | macrophage activation ability [1, 5] | significance of analgesic effects (double-sided t test) (C3H/H male mice; 3 hours after administration) | Writhing frequency (C3H/H male mice; time lapsed 0.5 h) | writhing inhibition (C3H/H male mice; time lapsed 0.5 h) | Writhing frequency (C3H/H male mice; time lapsed 1.5 h) | writhing inhibition (C3H/H male mice; time lapsed 1.5 h) | Writhing frequency (C3H/H male mice; time lapsed 3 h) | writhing inhibition (C3H/H male mice; time lapsed 3 h)
Lipid A | 4.7 units/ml of culture solution | 37% | 9.4 units/ml of culture solution | 80% | 11.1 units/ml of culture solution | 96% | 11.5 units/ml of culture solution | 100% |  |  |  |  |  |  | 
CCCCC1C(=O)N(c2ccccc2)N(c2ccccc2)C1=O [phenylbutazone] |  |  |  |  |  |  |  |  | no significant analgesic effects | 18 | 49% | 7 | 80% | 25 | 29%
